Measured values: ChEMBL document CHEMBL2434896, “Carbonic anhydrase inhibitors. Synthesis of heterocyclic 4-substituted pyridine-3-sulfonamide derivatives and their inhibition of the human cytosolic isozymes I and II and transmembrane tumor-associated isozymes IX and XII” (Eur J Med Chem, 2013)
Active and inactive are the calls of the source. The calls are words filed in the database; no cut-off is given here.

Columns and labels:
LOX IMVI = test: Growth inhibition of human LOXIMVI cells at 10 uM after 48 hrs by sulforhodamine B assay; assay type: functional
COLO 205 = test: Growth inhibition of human COLO205 cells at 10 uM after 48 hrs by sulforhodamine B assay; assay type: functional
SNB-19 = test: Growth inhibition of human SNB19 cells at 10 uM after 48 hrs by sulforhodamine B assay; assay type: functional
RXF 393 = test: Growth inhibition of human RXF393 cells at 10 uM after 48 hrs by sulforhodamine B assay; assay type: functional
HOP-62 = test: Growth inhibition of human HOP62 cells at 10 uM after 48 hrs by sulforhodamine B assay; assay type: functional
DU-145 = test: Growth inhibition of human DU145 cells at 10 uM after 48 hrs by sulforhodamine B assay; assay type: functional
NCI-H226 = test: Growth inhibition of human NCI-H226 cells at 10 uM after 48 hrs by sulforhodamine B assay; assay type: functional; conditions: NCI-H226, 48 h, read-out: GI
KM12 = test: Growth inhibition of human KM12 cells at 10 uM after 48 hrs by sulforhodamine B assay; assay type: functional
K562 = test: Growth inhibition of human K562 cells at 10 uM after 48 hrs by sulforhodamine B assay; assay type: functional; conditions: K562, 48 h, read-out: GI
CCRF-CEM = test: Growth inhibition of human CCRF-CEM cells at 10 uM after 48 hrs by sulforhodamine B assay; assay type: functional
SN12C = test: Growth inhibition of human SN12C cells at 10 uM after 48 hrs by sulforhodamine B assay; assay type: functional
SF-539 = test: Growth inhibition of human SF539 cells at 10 uM after 48 hrs by sulforhodamine B assay; assay type: functional; conditions: SF-539, 48 h, read-out: GI
786-0 = test: Growth inhibition of human 786-0 cells at 10 uM after 48 hrs by sulforhodamine B assay; assay type: functional
M14 = test: Growth inhibition of human M14 cells at 10 uM after 48 hrs by sulforhodamine B assay; assay type: functional; conditions: M14, 48 h, read-out: GI
A498 = test: Growth inhibition of human A498 cells at 10 uM after 48 hrs by sulforhodamine B assay; assay type: functional; conditions: A498, 48 h, read-out: GI
Malme-3M = test: Growth inhibition of human MALME-3M cells at 10 uM after 48 hrs by sulforhodamine B assay; assay type: functional; conditions: read-out: GI
BT-549 = test: Growth inhibition of human BT549 cells at 10 uM after 48 hrs by sulforhodamine B assay; assay type: functional; conditions: BT-549, 48 h, read-out: GI
T47D = test: Growth inhibition of human T47D cells at 10 uM after 48 hrs by sulforhodamine B assay; assay type: functional; conditions: read-out: GI
HL-60(TB) = test: Growth inhibition of human HL-60(TB) cells at 10 uM after 48 hrs by sulforhodamine B assay; assay type: functional; conditions: HL-60, 48 h, read-out: GI
MDA-MB-231 = test: Growth inhibition of human MDA-MB-231 cells at 10 uM after 48 hrs by sulforhodamine B assay; assay type: functional
Carbonic anhydrase 9 = Carbonic anhydrase 9 (Homo sapiens, UniProt Q16790); test: Inhibition of human carbonic anhydrase 9 after 15 mins by stopped flow CO2 hydration assay
HT-29 = test: Growth inhibition of human HT-29 cells at 10 uM after 48 hrs by sulforhodamine B assay; assay type: functional; conditions: HT-29, 48 h, read-out: GI
CAKI-1 = test: Growth inhibition of human CAKI-1 cells at 10 uM after 48 hrs by sulforhodamine B assay; assay type: functional; conditions: CAKI-1, 48 h, read-out: GI
UACC-62 = test: Growth inhibition of human UACC62 cells at 10 uM after 48 hrs by sulforhodamine B assay; assay type: functional; conditions: UACC-62, 48 h, read-out: GI
UO-31 = test: Growth inhibition of human UO31 cells at 10 uM after 48 hrs by sulforhodamine B assay; assay type: functional; conditions: UO-31, 48 h, read-out: GI
OVCAR-5 = test: Growth inhibition of human OVCAR5 cells at 10 uM after 48 hrs by sulforhodamine B assay; assay type: functional; conditions: OVCAR-5, 48 h, read-out: GI
OVCAR-3 = test: Growth inhibition of human OVCAR3 cells at 10 uM after 48 hrs by sulforhodamine B assay; assay type: functional
NCI-H322M = test: Growth inhibition of human NCI-H322M cells at 10 uM after 48 hrs by sulforhodamine B assay; assay type: functional; conditions: read-out: GI
Hs-578T = test: Growth inhibition of human Hs 578T cells at 10 uM after 48 hrs by sulforhodamine B assay; assay type: functional
MOLT-4 = test: Growth inhibition of human MOLT4 cells at 10 uM after 48 hrs by sulforhodamine B assay; assay type: functional; conditions: MOLT-4, 48 h, read-out: GI
SR = test: Growth inhibition of human SR cells at 10 uM after 48 hrs by sulforhodamine B assay; assay type: functional; conditions: read-out: GI
MCF7 = test: Growth inhibition of human MCF7 cells at 10 uM after 48 hrs by sulforhodamine B assay; assay type: functional
SK-MEL-28 = test: Growth inhibition of human SK-MEL-28 cells at 10 uM after 48 hrs by sulforhodamine B assay; assay type: functional, cell-based
IGROV-1 = test: Growth inhibition of human IGROV1 cells at 10 uM after 48 hrs by sulforhodamine B assay; assay type: functional; conditions: IGROV-1, 48 h, read-out: GI
TK-10 = test: Growth inhibition of human TK10 cells at 10 uM after 48 hrs by sulforhodamine B assay; assay type: functional; conditions: TK-10, 48 h, read-out: GI
SK-MEL-2 = test: Growth inhibition of human SK-MEL-2 cells at 10 uM after 48 hrs by sulforhodamine B assay; assay type: functional
HCT-15 = test: Growth inhibition of human HCT15 cells at 10 uM after 48 hrs by sulforhodamine B assay; assay type: functional; conditions: HCT-15, 48 h, read-out: GI
SF-268 = test: Growth inhibition of human SF268 cells at 10 uM after 48 hrs by sulforhodamine B assay; assay type: functional
HCT-116 = test: Growth inhibition of human HCT116 cells at 10 uM after 48 hrs by sulforhodamine B assay; assay type: functional; conditions: HCT-116, 48 h, read-out: GI
HCC 2998 = test: Growth inhibition of human HCC2998 cells at 10 uM after 48 hrs by sulforhodamine B assay; assay type: functional
UACC-257 = test: Growth inhibition of human UACC257 cells at 10 uM after 48 hrs by sulforhodamine B assay; assay type: functional
A549 = test: Growth inhibition of human A549/ATCC cells at 10 uM after 48 hrs by sulforhodamine B assay; assay type: functional; conditions: A549, 48 h, read-out: GI
NCI/ADR-RES = test: Growth inhibition of human NCI-ADR-RES cells at 10 uM after 48 hrs by sulforhodamine B assay; assay type: functional
OVCAR-8 = test: Growth inhibition of human OVCAR8 cells at 10 uM after 48 hrs by sulforhodamine B assay; assay type: functional; conditions: OVCAR-8, 48 h, read-out: GI

NS(=O)(=O)c1cnccc1N1CCN(c2ccc(Cl)c(Cl)c2)CC1
inhibition of growth at 10 µM (LOX IMVI; read-out: GI): 19% | growth inhibition (GI) (COLO 205): inactive | inhibition of growth at 10 µM (SNB-19; SNB-19, 48 h, read-out: GI): 5% | inhibition of growth at 10 µM (RXF 393; RXF 393, 48 h, read-out: GI): 8% | inhibition of growth at 10 µM (HOP-62; HOP-62, 48 h, read-out: GI): 1% | inhibition of growth at 10 µM (DU-145; DU-145, 48 h, read-out: GI): 7% | inhibition of growth at 10 µM (NCI-H226): 28% | inhibition of growth at 10 µM (KM12; KM12, 48 h, read-out: GI): 18% | inhibition of growth at 10 µM (K562): 65% | inhibition of growth at 10 µM (CCRF-CEM; read-out: GI): 47% | inhibition of growth at 10 µM (SN12C; read-out: GI): 17% | inhibition of growth at 10 µM (SF-539): 16% | inhibition of growth at 10 µM (786-0; 786-0, 48 h, read-out: GI): 15% | inhibition of growth at 10 µM (M14): 22% | inhibition of growth at 10 µM (A498): 12% | inhibition of growth at 10 µM (Malme-3M): 24% | inhibition of growth at 10 µM (BT-549): 27% | inhibition of growth at 10 µM (T47D): 72% | inhibition of growth at 10 µM (HL-60(TB)): 18% | inhibition of growth at 10 µM (MDA-MB-231; MDA-MB-231, 48 h, read-out: GI): 21% | Ki (Carbonic anhydrase 9): 341 nM | inhibition of growth at 10 µM (HT-29): 29% | inhibition of growth at 10 µM (CAKI-1): 36% | inhibition of growth at 10 µM (UACC-62): 38% | inhibition of growth at 10 µM (UO-31): 31% | inhibition of growth at 10 µM (OVCAR-5): 1% | inhibition of growth at 10 µM (OVCAR-3; OVCAR-3, 48 h, read-out: GI): 30% | inhibition of growth at 10 µM (NCI-H322M): 18% | growth inhibition (GI) (Hs-578T): inactive | inhibition of growth at 10 µM (MOLT-4): 39% | inhibition of growth at 10 µM (SR): 35% | inhibition of growth at 10 µM (MCF7; MCF7, 48 h, read-out: GI): 37% | growth inhibition (GI) (SK-MEL-28): inactive | inhibition of growth at 10 µM (IGROV-1): 31% | inhibition of growth at 10 µM (TK-10): 9% | inhibition of growth at 10 µM (SK-MEL-2; SK-MEL-2, 48 h, read-out: GI): 16% | inhibition of growth at 10 µM (HCT-15): 27% | inhibition of growth at 10 µM (SF-268; SF-268, 48 h, read-out: GI): 2% | inhibition of growth at 10 µM (HCT-116): 35%

Cc1ccc(C)c(N2CCN(c3ccncc3S(N)(=O)=O)CC2)c1
growth inhibition (GI) (LOX IMVI): inactive | growth inhibition (GI) (COLO 205): inactive | growth inhibition (GI) (SNB-19): inactive | growth inhibition (GI) (RXF 393): inactive | growth inhibition (GI) (HOP-62): inactive | growth inhibition (GI) (DU-145): inactive | growth inhibition (GI) (HCC 2998): inactive | inhibition of growth at 10 µM (NCI-H226): 3% | growth inhibition (GI) (UACC-257): inactive | growth inhibition (GI) (KM12): inactive | growth inhibition (GI) (CCRF-CEM): inactive | growth inhibition (GI) (SN12C): inactive | inhibition of growth at 10 µM (SF-539): 1% | growth inhibition (GI) (786-0): inactive | inhibition of growth at 10 µM (A549): 2% | inhibition of growth at 10 µM (M14): 1% | inhibition of growth at 10 µM (A498): 16% | inhibition of growth at 10 µM (Malme-3M): 15% | inhibition of growth at 10 µM (BT-549): 8% | inhibition of growth at 10 µM (T47D): 15% | inhibition of growth at 10 µM (HL-60(TB)): 6% | growth inhibition (GI) (MDA-MB-231): inactive | Ki (Carbonic anhydrase 9): 548 nM | inhibition of growth at 10 µM (HT-29): 9% | inhibition of growth at 10 µM (CAKI-1): 9% | inhibition of growth at 10 µM (UACC-62): 7% | inhibition of growth at 10 µM (UO-31): 15% | inhibition of growth at 10 µM (OVCAR-5): 3% | growth inhibition (GI) (OVCAR-3): inactive | inhibition of growth at 10 µM (NCI-H322M): 7% | growth inhibition (GI) (Hs-578T): inactive | inhibition of growth at 10 µM (MOLT-4): 11% | inhibition of growth at 10 µM (SR): 10% | growth inhibition (GI) (MCF7): inactive | growth inhibition (GI) (SK-MEL-28): inactive | inhibition of growth at 10 µM (IGROV-1): 6% | growth inhibition (GI) (NCI/ADR-RES): inactive | inhibition of growth at 10 µM (TK-10): 7% | growth inhibition (GI) (SK-MEL-2): inactive | inhibition of growth at 10 µM (OVCAR-8): 4% | inhibition of growth at 10 µM (HCT-15): 12% | growth inhibition (GI) (SF-268): inactive | inhibition of growth at 10 µM (HCT-116): 9%
